We go through eleven molecules from patent US8470816B2, “Nitrogen-containing heterocyclic compound and use thereof” (Takeda Pharmaceutical Company Limited, priority 2007, dated 2013).

For series [1], the target named is human NK2 (hNK2) receptor (Homo sapiens (Human), UniProt P21452). As to the kind of experiment: Human NK2 receptor binding assay: radioligand ([125I]-NK-A) binding inhibition using membrane fraction of CHO cells expressing hNK2 receptor. To be noted: CHO cell membrane fraction.
Protocol: CHO cells expressing hNK2 receptor were cultured in a HAM-F12 medium containing 400 μg/mL geneticin, 100 U/mL penicillin, 100 μg/mL streptomycin and 10% inactivated serum. The medium was removed, the adhered cells were washed with PBS, and PBS containing 5 mM EDTA was added to detach the cells from the flask. The cells were collected by centrifugation, suspended in suspension buffer A (15 mM Tris-HCl (pH 7.5), 2 mM MgCl2, 0.3 mM ethylenediaminetetraacetic acid (EDTA), 1 mM O,O′-bis(2-aminoethyl)ethyleneglycol-N,N,N′,N′-tetraacetic acid (EGTA)), disrupted by a Polytron homogenizer (Kinematika), and centrifuged at 800×g for 10 min. The supernatant was recovered and ultracentrifuged at 100,000×g for 25 min.
Measurement buffer (50 mM Tris-HCl (pH 7.4), 0.02% bovine serum albumin, 2 μg/mL chymostatin, 40 μg/mL bacitracin, 40 μg/mL APMSF, 3 mM MnCl2) (50 μL) was added to a 96-well microassay plate. The membrane reference standard (20 μg/mL) suspended in a measurement buffer was added by 50 μL.
After reaction at 25° C. for 30 min, the reaction was quenched using a cell harvester (PerkinElmer) by rapid filtration on a GF/C filter plate, and the cells were washed 5 times with 250 μL of a 50 mM Tris-HCl buffer (pH 7.4) containing 0.02% bovine serum albumin. The GF/C filter plate was dried, MicroScinti-0 (PerkinElmer) was added by 20 μL, and the radioactivity was measured on a TopCount (PerkinElmer). The GF/C filter plate used had been immersed in 0.3% polyethyleneimine for one day.
The specific binding level is shown by a value obtained by subtracting non-specific binding level from the total binding level. The binding inhibitory activity of the test compound is shown by a ratio of the value obtained by subtracting the measurement value with addition of a test compound from the total binding level, to the value of the specific binding level.
A further series concerns the target human NK1 receptor (Homo sapiens (Human), UniProt P25103). As to the kind of experiment: Human NK1 receptor binding assay: radioligand (125I-Bolton-Hunter-SP) binding inhibition using receptor from human lymphoblast cells (IM-9). The protocol:
42, p. […] The receptor was prepared from human lymphoblast cells (IM-9).

Series [2] has as its target human NK3 (hNK3) receptor (Homo sapiens (Human), UniProt P29371). Kind of series: Human NK3 receptor binding assay: radioligand ([125I]-NK-B) binding inhibition using membrane fraction of CHO cells expressing hNK3 receptor. The settings on record: CHO cell membrane fraction.
Protocol: CHO cells expressing hNK3 receptor were cultured in a MEMα medium (Nikken Seibutsu Igaku Kenkyusho, K.K.) containing 100 U/mL penicillin, 100 μg/mL streptomycin and 10% inactivated dialyzed serum. The medium was removed, the adhered cells were washed with PBS, and PBS containing 5 mM EDTA was added to detach the cells from the flask. The cells were collected by centrifugation, suspended in suspension buffer A (50 mM Tris-HCl (pH 7.4) containing 120 mM NaCl, 5 mM KCl, 2 μg/mL chymostatin, 40 μg/mL bacitracin, 40 μg/mL APMSF, 1 mM EDTA), disrupted by a Polytron homogenizer (Kinematika), and centrifuged at 800×g for 10 min. The supernatant was recovered and ultracentrifuged at 100,000×g for 25 min. The precipitation fraction was suspended in suspension buffer B (50 mM Tris-HCl (pH 7.4), 0.02% bovine serum albumin, 2 μg/mL chymostatin, 40 μg/mL bacitracin, 40 μg/mL APMSF, 3 mM MnCl2), and cryopreserved (−80° C.) as a receptor reference standard. […]
After reaction at 25° C. for 30 min, the reaction was quenched using a cell harvester (PerkinElmer) by rapid filtration on a GF/C filter plate, and the cells were washed 5 times with 250 μL of a 50 mM Tris-HCl buffer (pH 7.4) containing 0.02% bovine serum albumin. The GF/C filter plate was dried, MicroScinti-0 (Perkin Elmer) was added by 20 μL, and the radioactivity was measured on a TopCount (PerkinElmer). […]

One may read the melting point as the temperature, or range, at which the solid turns liquid. Broadly, the IC50 is the concentration that gives 50% inhibition.

Sequence of human NK2 (hNK2) receptor (P21452 whole entry): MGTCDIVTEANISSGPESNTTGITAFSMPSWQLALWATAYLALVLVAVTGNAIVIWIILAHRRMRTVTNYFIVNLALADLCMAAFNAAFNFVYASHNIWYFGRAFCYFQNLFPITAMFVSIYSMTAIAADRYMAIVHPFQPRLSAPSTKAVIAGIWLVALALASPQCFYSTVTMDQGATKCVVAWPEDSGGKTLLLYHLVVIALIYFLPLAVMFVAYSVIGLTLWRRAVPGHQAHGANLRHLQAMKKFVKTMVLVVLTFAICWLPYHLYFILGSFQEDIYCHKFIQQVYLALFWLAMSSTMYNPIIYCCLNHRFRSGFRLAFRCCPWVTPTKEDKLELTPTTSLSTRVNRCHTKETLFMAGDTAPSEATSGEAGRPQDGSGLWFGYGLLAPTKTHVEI
Sequence of human NK1 receptor (P25103 whole entry): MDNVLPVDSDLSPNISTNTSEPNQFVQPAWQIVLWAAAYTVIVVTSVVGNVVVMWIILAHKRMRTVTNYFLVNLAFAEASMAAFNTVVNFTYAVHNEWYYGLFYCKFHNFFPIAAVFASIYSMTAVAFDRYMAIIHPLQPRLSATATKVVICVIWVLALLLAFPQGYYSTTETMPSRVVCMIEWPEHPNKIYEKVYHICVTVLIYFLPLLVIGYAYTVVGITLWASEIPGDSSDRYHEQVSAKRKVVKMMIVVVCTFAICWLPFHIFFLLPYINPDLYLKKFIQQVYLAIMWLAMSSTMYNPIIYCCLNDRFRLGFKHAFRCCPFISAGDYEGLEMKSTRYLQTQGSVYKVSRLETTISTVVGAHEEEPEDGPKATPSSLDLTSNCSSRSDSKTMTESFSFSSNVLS
Sequence of human NK3 (hNK3) receptor (P29371 whole entry): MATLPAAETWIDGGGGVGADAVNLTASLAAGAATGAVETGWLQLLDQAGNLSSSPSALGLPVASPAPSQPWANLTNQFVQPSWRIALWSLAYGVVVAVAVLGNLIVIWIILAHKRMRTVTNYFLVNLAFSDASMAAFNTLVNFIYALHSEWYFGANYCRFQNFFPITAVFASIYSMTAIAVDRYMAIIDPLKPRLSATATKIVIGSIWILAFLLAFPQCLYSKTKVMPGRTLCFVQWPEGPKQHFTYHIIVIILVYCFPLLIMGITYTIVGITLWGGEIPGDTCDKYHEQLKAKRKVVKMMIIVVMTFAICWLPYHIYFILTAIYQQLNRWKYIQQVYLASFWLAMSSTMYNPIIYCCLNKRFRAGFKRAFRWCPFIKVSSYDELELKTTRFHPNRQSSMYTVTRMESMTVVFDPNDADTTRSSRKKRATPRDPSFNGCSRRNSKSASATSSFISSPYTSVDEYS

In the case of `COc1ccc(C(=O)N(C)[C@@H]2CCN(C(=O)C3CCN(C(C)=O)CC3)C[C@H]2c2ccc(Cl)c(Cl)c2)cc1`, the melting point fell in the range of 134 to 136 °C.

For `CC(=O)N1CCC(C(=O)N2CC[C@@H](N(C)C(=O)c3ccc(Br)cn3)[C@H](c3ccc(Cl)c(Cl)c3)C2)CC1`, the melting point fell in the range of 128 to 130 °C.

Regarding `CC(=O)N1CCC(C(=O)N2CC[C@@H](N(C)C(=O)c3ccc(Cl)cc3)[C@H](c3ccc(Cl)c(Cl)c3)C2)CC1.O` (hydrate or solvate), the melting point was in the range of 113 to 115 °C.

Consider `CN(C(=O)c1ccc(Cl)cc1)[C@@H]1CCN(C(=O)C2CCN(C(=O)CO)CC2)C[C@H]1c1ccc(Cl)c(Cl)c1.O` (hydrate or solvate), for which the melting point was 128 to 131 °C.

In turn, `CN(C(=O)c1ccc(C(F)(F)F)cc1)[C@@H]1CCN(C(=O)C2CCN(C(=O)CO)CC2)C[C@H]1c1ccc(Cl)c(Cl)c1.O` (hydrate or solvate) came in with a melting point of 124 to 127 °C.

In the case of `CN(C(=O)c1ccc(Br)cc1)[C@@H]1CCN(C(=O)C2CCN(C(=O)CO)CC2)C[C@H]1c1ccc(Cl)c(Cl)c1.O` (hydrate or solvate), the melting point fell in the range of 130 to 132 °C.

Molecule `CC(=O)N1CCC(C(=O)N2CC[C@@H](N(C)C(=O)c3ccc(N4CCOCC4)cc3)[C@H](c3ccc(Cl)c(Cl)c3)C2)CC1.O` (hydrate or solvate) [Example 268, N-[(3R,4R)-1-[(1-acetylpiperidin-4-yl)carbonyl]-3-(3,4-dichlorophenyl)piperidin-4-yl]-N-methyl-4-morpholin-4-ylbenzamide monohydrate] had a melting point of 136 to 139 °C.

For `CC(=O)N1CCC(C(=O)N2CC[C@@H](N(C)C(=O)c3ccc(-c4ccccc4)cc3)[C@H](c3ccc(Cl)c(Cl)c3)C2)CC1` (racemic) [Example 31, N-[(3R*,4R*)-1-[(1-acetylpiperidin-4-yl)carbonyl]-3-(3,4-dichlorophenyl)piperidin-4-yl]-N-methylbiphenyl-4-carboxamide], the IC50 in series [1] came to 1.7 nM; at human NK1 receptor (radioligand binding inhibition, IM-9 cell receptor, read-out: hNK1 IC50), 410 nM; in series [2], 160 nM.

In series [1], `CC(=O)N1CCC(C(=O)N2C[C@@H](N(C)C(=O)c3cc(C(F)(F)F)cc(C(F)(F)F)c3)[C@H](c3ccc(Cl)c(Cl)c3)C2)CC1` (racemic) [Example 82, N-[(3S*,4R*)-1-[(1-acetylpiperidin-4-yl)carbonyl]-4-(3,4-dichlorophenyl)pyrrolidin-3-yl]-N-methyl-3,5-bis(trifluoromethyl)benzamide] registered an IC50 of 2.2 nM.

Consider `CC(=O)N1CCC(C(=O)N2CC[C@@H](N(C)C(=O)c3ccc(N4CCOCC4)cc3)[C@H](c3ccc(Cl)c(Cl)c3)C2)CC1.O` [Example 268, N-[(3R,4R)-1-[(1-acetylpiperidin-4-yl)carbonyl]-3-(3,4-dichlorophenyl)piperidin-4-yl]-N-methyl-4-morpholin-4-ylbenzamide monohydrate], for which the IC50 in series [1] was 0.42 nM. On human NK1 receptor (10 μM), the “hNK1 % inh. (10 μM)” value is 58.2% inh.

As to `CN(C(=O)c1ccc(Cl)cc1)[C@@H]1CCN(C(=O)Nc2ccc(F)nc2)C[C@H]1c1ccc(Cl)c(Cl)c1` [Example 516, (3R,4R)-4-{[(4-chlorophenyl)carbonyl](methyl)amino}-3-(3,4-dichlorophenyl)-N-(6-fluoropyridin-3-yl)piperidine-1-carboxamide], the melting point was 156 to 158 °C.
